Patent US10072006B2 (MUTABILIS, priority 2015, dated 2018)

Legend:
[1] = tested on: P. aeruginosa UFR93 (Derepressed ampC, OprD-, MexAB+, MexXY+); assay: MIC of compounds and synergy with ceftazidime (broth microdilution); assay type: cell-based; details: for MIC: Pseudomonas aeruginosa, 18 h, read-out: MIC compounds of the invention alone
Procedure, shortened: (§1)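 Read-out is visual: the MIC is the lowest concentration at which no bacterial growth is seen. Plates held compounds spotted from DMSO solutions and were kept at 35° C in ambient air for 16-20 h.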

[2] = tested on: K. pneumoniae 6299 (TEM-1, SHV-11, OXA-163); assay: as above; assay type: cell-based; details: strain 6299 (K. pneumoniae); for MIC: Klebsiella pneumoniae, 18 h, read-out: MIC compounds of the invention alone; for MIC, combination of CAZ and compounds of the invention: MIC of ceftazidime with compound fixed at 4 μg/mL
Procedure, shortened: as §1

[3] = tested on: P. aeruginosa CIP105250 (OXA-15); assay: as above; assay type: cell-based; details: strain CIP105250 (P. aeruginosa); for MIC, combination of CAZ and compounds of the invention: MIC of ceftazidime with compound fixed at 4 μg/mL; for MIC: Pseudomonas aeruginosa, 18 h, read-out: MIC compounds of the invention alone
Procedure, shortened: as §1

[4] = tested on: C. murliniae 210102 (VIM-4); assay: as above; assay type: cell-based; details: strain 210102 (C. murliniae); for MIC: 18 h, read-out: MIC compounds of the invention alone; for MIC, combination of CAZ and compounds of the invention: MIC of ceftazidime with compound fixed at 4 μg/mL
Procedure, shortened: as §1

[5] = tested on: E. cloacae UFR70 (TEM-1, CTX-M-15, CMY-2, OXA-1, Porin loss); assay: as above; assay type: cell-based; details: for MIC: Enterobacter cloacae, 18 h, read-out: MIC compounds of the invention alone; for MIC, combination of CAZ and compounds of the invention: MIC of ceftazidime with compound fixed at 4 μg/mL, strain UFR70 (E. cloacae)
Procedure, shortened: as §1

[6] = tested on: E. cloacae UFR38 (CTX-M-15, NDM-1); assay: as above; assay type: cell-based; details: strain UFR38 (E. cloacae); for MIC: Enterobacter cloacae, 18 h, read-out: MIC compounds of the invention alone; for MIC, combination of CAZ and compounds of the invention: MIC of ceftazidime with compound fixed at 4 μg/mL
Procedure, shortened: as §1

[7] = tested on: P. aeruginosa UFR48 (VIM-2); assay: as above; assay type: cell-based; details: strain UFR48 (P. aeruginosa); for MIC: Pseudomonas aeruginosa, 18 h, read-out: MIC compounds of the invention alone
Procedure, shortened: as §1

[8] = tested on: E. coli UFR32 (TEM-1, VEB-1, OXA-10); assay: as above; assay type: cell-based; details: strain UFR32 (E. coli); for MIC: Escherichia coli, 18 h, read-out: MIC compounds of the invention alone; for MIC, combination of CAZ and compounds of the invention: MIC of ceftazidime with compound fixed at 4 μg/mL
Procedure, shortened: as §1

[9] = tested on: E. coli UFR74 (SHV-1, DHA-1); assay: as above; assay type: cell-based; details: strain UFR74 (E. coli); for MIC: Escherichia coli, 18 h, read-out: MIC compounds of the invention alone; for MIC, combination of CAZ and compounds of the invention: MIC of ceftazidime with compound fixed at 4 μg/mL
Procedure, shortened: as §1

[10] = tested on: P. aeruginosa UFR90 (Derepressed ampC, OprD-); assay: as above; assay type: cell-based
Procedure, shortened: as §1

[11] = tested on: E. coli UFR52 (TEM-1, SHV-12, IMP-8); assay: as above; assay type: cell-based; details: strain UFR52 (E. coli); for MIC: Escherichia coli, 18 h, read-out: MIC compounds of the invention alone; for MIC, combination of CAZ and compounds of the invention: MIC of ceftazidime with compound fixed at 4 μg/mL
Procedure, shortened: as §1

[12] = tested on: E. coli UFR61O (TEM-1, KPC-2); assay: as above; assay type: cell-based; details: for MIC: Escherichia coli, strain UFR61O (E. coli), read-out: MIC compounds of the invention alone; for MIC, combination of CAZ and compounds of the invention: MIC of ceftazidime with compound fixed at 4 μg/mL, strain UFR610 (E. coli)
Procedure, shortened: (§2)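 MICs were scored by eye after 16-20 h at 35° C (ambient air), using compounds spotted from DMSO.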

[13] = tested on: P. aeruginosa UFR92 (Derepressed ampC, OprD-); assay: as above; assay type: cell-based; details: MIC of ceftazidime with compound fixed at 4 μg/mL; strain UFR92 (P. aeruginosa)
Procedure, shortened: as §2

OXA-11 = molecular target: T1, OXA-11 (Pseudomonas aeruginosa, UniProt Q06778); assay: β-lactamase inhibitory activity, determination of IC50 (nitrocefin hydrolysis); assay type: biochemical
T1 construct: made in house; host or cells: E. coli

OXA-1 = molecular target: T2, OXA-1 (Escherichia coli, UniProt P13661); assay: as above; assay type: biochemical
T2 construct: made in house; host or cells: E. coli
T2 sequence (P13661 26-276): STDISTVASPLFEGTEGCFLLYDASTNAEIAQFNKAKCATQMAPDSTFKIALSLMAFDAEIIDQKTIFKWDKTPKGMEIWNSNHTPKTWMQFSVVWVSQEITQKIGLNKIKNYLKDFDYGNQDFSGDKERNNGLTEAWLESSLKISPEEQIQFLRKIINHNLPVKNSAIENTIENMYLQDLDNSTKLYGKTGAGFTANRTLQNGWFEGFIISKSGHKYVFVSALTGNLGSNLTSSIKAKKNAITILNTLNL

T1 sequence (Q06778 21-266): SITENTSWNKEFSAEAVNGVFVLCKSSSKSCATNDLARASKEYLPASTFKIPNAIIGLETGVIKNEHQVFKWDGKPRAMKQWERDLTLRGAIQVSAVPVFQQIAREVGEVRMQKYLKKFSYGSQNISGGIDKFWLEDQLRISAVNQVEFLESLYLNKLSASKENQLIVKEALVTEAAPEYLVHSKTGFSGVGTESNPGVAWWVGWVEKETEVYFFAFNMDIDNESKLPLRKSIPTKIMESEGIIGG

Row | Compound | MIC [1] | MIC [2] | MIC, combination of CAZ and compounds of the invention [2] | MIC, combination of CAZ and compounds of the invention [3] | MIC [3] | MIC [4] | MIC, combination of CAZ and compounds of the invention [4] | MIC [5] | MIC, combination of CAZ and compounds of the invention [5] | MIC [6] | MIC, combination of CAZ and compounds of the invention [6] | MIC [7] | MIC [8] | MIC, combination of CAZ and compounds of the invention [8] | MIC [9] | MIC, combination of CAZ and compounds of the invention [9] | MIC [11] | MIC, combination of CAZ and compounds of the invention [11] | MIC [12] | MIC, combination of CAZ and compounds of the invention [12] | also measured
1 | NC[C@@H]1C(c2nccs2)=C[C@@H]2CN1C(=O)N2OS(=O)(=O)[O-].O=C(O)C(F)(F)F.[Na+] [Example 2, Sodium and 2,2,2-trifluoroacetate [(2S,5R)-2-(azaniumylmethyl)-7-oxo-3-thiazol-2-yl-1,6-diazabicyclo[3.2.1]oct-3-en-6-yl] sulfate] | 4 µg/mL | > 32 µg/mL | 4 µg/mL | ≤0.125 µg/mL | 8 µg/mL | 4 µg/mL | ≤0.125 µg/mL | 4 µg/mL | <0.25 µg/mL | 32 µg/mL | <0.25 µg/mL | 2 µg/mL | ≤ 0.016 µg/mL | <0.25 µg/mL | 16 µg/mL | ≤0.125 µg/mL | 4 µg/mL | <0.25 µg/mL | 0.031 µg/mL | <0.25 µg/mL | MIC, combination of CAZ and compounds of the invention ([1]; MIC of ceftazidime with compound fixed at 4 μg/mL, strain UFR93 (P. aeruginosa)): <0.25 µg/mL; MIC, combination of CAZ and compounds of the invention ([7]; MIC of ceftazidime with compound fixed at 4 μg/mL): <0.25 µg/mL; MIC, combination of CAZ and compounds of the invention ([10]; MIC of ceftazidime with compound fixed at 4 μg/mL, strain UFR90 (P. aeruginosa)): <0.25 µg/mL; MIC ([10]; Pseudomonas aeruginosa, 18 h, read-out: MIC compounds of the invention alone): 1 µg/mL; MIC, combination of CAZ and compounds of the invention [13]: <0.25 µg/mL; IC50 (OXA-11): 6.8 nM; IC50 (OXA-1): 6.1 nM
2 | NC[C@@H]1C(c2ncco2)=C[C@@H]2CN1C(=O)N2OS(=O)(=O)[O-].O=C(O)C(F)(F)F.[Na+] [Example 5, Sodium and 2,2,2-trifluoroacetate [(2S,5R)-2-(azaniumylmethyl)-7-oxo-3-oxazol-2-yl-1,6-diazabicyclo[3.2.1]oct-3-en-6-yl] sulfate] | 4 µg/mL | > 32 µg/mL | 8 µg/mL | <0.25 µg/mL | 4 µg/mL | 4 µg/mL | <0.25 µg/mL | 8 µg/mL | <0.25 µg/mL | ≤ 0.016 µg/mL | <0.25 µg/mL | 2 µg/mL | 0.063 µg/mL | <0.25 µg/mL | 16 µg/mL | <0.25 µg/mL | 4 µg/mL | <0.25 µg/mL | 0.5 µg/mL | <0.25 µg/mL | IC50 (OXA-11): 430 nM; IC50 (OXA-1): 370 nM
